Results from patent US7384912B2, “Treatment of bone disorders with skeletal anabolic drugs” (Osteotrophin, LLC, priority 2002, dated 2008).
Marks after values point to notes of the source that are not given here.

How the values were obtained:
[1] = target: T1, PTH/PTHrP receptors in human renal cortical membranes (RCM) (Homo sapiens, UniProt Q03431); assay: Competition binding of 125I-(Tyr36)hPTHrP-(1-36)NH2 to human renal cortical membranes
T1 sequence (Q03431 27-593): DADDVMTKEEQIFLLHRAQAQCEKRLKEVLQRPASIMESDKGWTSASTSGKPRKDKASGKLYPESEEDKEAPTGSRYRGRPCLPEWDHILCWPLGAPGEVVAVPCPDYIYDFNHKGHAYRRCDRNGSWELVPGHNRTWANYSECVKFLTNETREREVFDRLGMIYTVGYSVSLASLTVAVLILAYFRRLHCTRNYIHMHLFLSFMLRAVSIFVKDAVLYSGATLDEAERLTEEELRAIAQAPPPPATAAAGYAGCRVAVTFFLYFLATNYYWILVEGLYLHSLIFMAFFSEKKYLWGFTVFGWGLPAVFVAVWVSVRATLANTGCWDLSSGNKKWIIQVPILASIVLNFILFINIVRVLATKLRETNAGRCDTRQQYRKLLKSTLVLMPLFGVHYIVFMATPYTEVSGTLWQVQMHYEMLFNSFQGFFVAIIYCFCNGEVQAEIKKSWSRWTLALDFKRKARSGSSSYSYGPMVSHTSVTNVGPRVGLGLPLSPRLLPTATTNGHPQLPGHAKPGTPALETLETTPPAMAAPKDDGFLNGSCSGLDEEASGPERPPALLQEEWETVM
Method: All steps were performed in the presence of the following protease inhibitors: aprotinin [10 Kallikrein inhibitor units (KIU/ml], pepstatin (5 μg/ml), leupeptin (45 μg/ml), and phenylmethanesulfanylfluoride (10 μg/ml). Normal human kidney cortex was from four separate nephrectomy specimens removed for localized transitional cell carcinoma, renal cell carcinoma, or benign cysts. Renal function in all individuals was normal as assessed by serum creatinine and pyelography. Membranes were pooled, aliquoted, and stored at −70° C. for later use.
Human RCM were added to a final concentration of 90 μg/ml. […] The incubation time of 30 min was used for subsequent equilibrium binding competition studies.
(§1) Statistical differences were assessed by paired and unpaired two-tailed Student's t test.

[2] = target: T2, PTH/PTHrP receptors in SaOS-2 membranes (Homo sapiens, UniProt Q03431); assay: Competition binding of 125I-(Tyr36)hPTHrP-(1-36)NH2 to SaOS-2 membranes; details: 30° C., 60 min
T2 sequence (Q03431 27-593): T1 sequence (Q03431 27-593)
Method: Briefly, postconfluent cells in 150 cm^2 flasks were scraped into membrane buffer [10 mM Tris HCl (pH 7.5), 0.2 mM MgCl2, 0.5 mM EGTA, 1 mM dithiothreitol, leupeptin 45 μg/ml, pepstatin 5 μg/ml, aprotinin 10 KIU/ml, and phenylmethane sulfanyl-fluoride 10 μg/ml] at 0° C. Cell disruption was achieved by sonification and the suspension was centrifuged at 13,000×g for 15 min at 4° C. […] The suspension was layered onto a cushion of the membrane buffer containing 45% sucrose and centrifuged at 70,000×g for 30 min at 4° C. […] Protein concentrations were determined by the method of Lowry using BSA as standard.
The binding assay for SaOS-2 membranes was conducted as for human RCM. Membranes were added to a final concentration of 112.5 μg/ml and specific binding reached equilibrium by 60 min at 30° C.

[3] = target: T3, PTH/PTHrP receptors on SaOS-2 intact cells (Homo sapiens, UniProt Q03431); assay: Competition binding of 125I-(Tyr36)hPTHrP-(1-36)NH2 to SaOS-2 intact cells; details: intact cells, 15° C., 150 min
T3 sequence (Q03431 27-593): T1 sequence (Q03431 27-593)
Method: The medium was changed every other day, and studies were performed at 5-7 days post confluence. Cell numbers were determined using a Coulter counter.
Binding studies were conducted at 15° C. in the presence of chymostatin (100 μg/ml) and bacitracin (200 μg/ml). […] The incubation time of 150 min was therefore used for competitive binding studies.

[4] = system: ovariectomized (OVX) rats; assay: Bone histomorphometry of the right proximal tibia in ovariectomized rats; assay type: in vivo, rat; set-up: Trabecular Number Tb.N.: unit not given here; details: for Apposition Rate MAR / Bone Formation Rate BFR/BS / Mineralizing Surface MS/BS / Osteoclast Surface Oc.PM / Resorbing Surface E.PM / Trabecular Area Tb.A. / Trabecular Number Tb.N. / Trabecular Space Tb.Sp. / Trabecular Thickness Tb.Th.: 40 μg/kg/day s.c. once daily
[5] = system: ovariectomized (OVX) rats; assay: Bone mass measurements in ovariectomized rats; assay type: in vivo, rat; set-up: Left Femur Length: unit not given here; details: 40 μg/kg/day s.c. once daily
[6] = system: adenylate cyclase in SaOS-2 intact cells; assay: Adenylate cyclase assay in SaOS-2 intact cells; assay type: cell-based, human; details: 15° C., 60 min
Method: Adenylate cyclase-stimulating activity was examined in confluent SAOS-2 cells as previously described for ROS 17/2.8 cells (Merendino et al., Science 231:388-390, (1986)), with the following modification. The intact cell assay was conducted at 15° C., the same conditions employed for binding to intact SaOS-2 cells (vide supra). […] Dose response curves for each peptide were thus generated using 60 min incubations at 15° C. under binding assay conditions.
as §1

[7] = system: ovariectomized (OVX) rats; assay: Biomechanical measures of strength in ovariectomized rats; assay type: in vivo, rat; details: 40 μg/kg/day s.c. once daily
[8] = system: patients with osteoporosis; details: cited from earlier work

hPTHrP-(37-74) (RATSEVSPNSKPSPNTKNHPVRFGSDDEGRYLTQETNK) [Human PTHrP fragment 37-74 prepared by solid phase synthesis]
Binding (IC50) Kidney membranes ([1]; human RCM, 30° C., 30 min): did not inhibit binding
Binding (IC50) SaOS membranes [2]: did not inhibit binding
Binding (IC50) SaOS cells [3]: did not inhibit binding

hPTH-(1-34)
Apposition Rate MAR ([4]; 30 days): 2.4 ± 0.1^c μm/d
Bone Formation Rate BFR/BS ([4]; 30 days): 1.18 ± 7^a,c μm/d
Mineralizing Surface MS/BS ([4]; 30 days): 49 ± 2^a,c %
Osteoclast Surface Oc.PM ([4]; 30 days): 2.3 ± 0.6%
Resorbing Surface E.PM ([4]; 30 days): 8.6 ± 1.2%
Trabecular Area Tb.A. ([4]; 30 days): 19 ± 2^a %
Trabecular Number Tb.N. ([4]; 30 days): 2.3 ± 0.1
Trabecular Space Tb.Sp. ([4]; 30 days): 367 ± 28^a,c Φm
Trabecular Thickness Tb.Th. ([4]; 30 days): 81 ± 5^a,c Φm
Apposition Rate MAR ([4]; 90 days): 3.0 ± 0.1^a,c μm/d
Bone Formation Rate BFR/BS ([4]; 90 days): 1.23 ± 4^a,c μm/d
Mineralizing Surface MS/BS ([4]; 90 days): 41 ± 1^a,c %
Osteoclast Surface Oc.PM ([4]; 90 days): 2.6 ± 0.5%
Resorbing Surface E.PM ([4]; 90 days): 10.6 ± 1.3^c %
Trabecular Area Tb.A. ([4]; 90 days): 38 ± 3^a,c %
Trabecular Number Tb.N. ([4]; 90 days): 2.4 ± 0.2
Trabecular Space Tb.Sp. ([4]; 90 days): 274 ± 34^a Φm
Trabecular Thickness Tb.Th. ([4]; 90 days): 158 ± 6^a,c Φm
Apposition Rate MAR ([4]; 180 days): 3.8 ± 0.7^c μm/d
Bone Formation Rate BFR/BS ([4]; 180 days): 1.53 ± 28^a,c μm/d
Mineralizing Surface MS/BS ([4]; 180 days): 40 ± 2^a,c %
Osteoclast Surface Oc.PM ([4]; 180 days): 2.0 ± 0.4%
Resorbing Surface E.PM ([4]; 180 days): 6.4 ± 1.5%
Trabecular Area Tb.A. ([4]; 180 days): 38 ± 3^a,c %
Trabecular Number Tb.N. ([4]; 180 days): 2.3 ± 0.1
Trabecular Space Tb.Sp. ([4]; 180 days): 279 ± 29^a Φm
Trabecular Thickness Tb.Th. ([4]; 180 days): 163 ± 8^a,c Φm
bone in the right proximal tibia, photomicrographs ([4]; 90 days of treatment): not only restores lost bone but significantly increases trabecular bone volume over Sham
Left Femur BMC ([5]; 30 days): 0.340 ± 0.011^a,c
Left Femur BMD ([5]; 30 days): 0.200 ± 0.004^a
Left Femur Length ([5]; 30 days): 34.9 ± 0.3
Left Femur X Area ([5]; 30 days): 1.68 ± 0.04^c
Radius Ash Weight ([5]; 30 days): 60 ± 1^c mg
Whole Body BMC ([5]; 30 days): 64 ± 3^c
Left Femur BMC ([5]; 90 days): 0.401 ± 0.010^a,c
Left Femur BMD ([5]; 90 days): 0.232 ± 0.005^a,c
Left Femur Length ([5]; 90 days): 35.7 ± 0.2^c
Left Femur X Area ([5]; 90 days): 1.73 ± 0.03^c
Radius Ash Weight ([5]; 90 days): 66 ± 1^a,c mg
Whole Body BMC ([5]; 90 days): 69 ± 3^c
Left Femur BMC ([5]; 180 days): 0.451 ± 0.012^a,c
Left Femur BMD ([5]; 180 days): 0.234 ± 0.004^a,c
Left Femur Length ([5]; 180 days): 35.6 ± 0.3^c
Left Femur X Area ([5]; 180 days): 1.84 ± 0.04^a,c
Radius Ash Weight ([5]; 180 days): 72 ± 2^a,c mg
Whole Body BMC ([5]; 180 days): 71 ± 3^c
EC50 [6]: 1.6 nM
Femur Neck Ultimate Load, (Fu) ([7]; 30 days): 139 ± 3^ac N
Mid-Femur Cortical Thickness (t) ([7]; 30 days): 0.64 ± 0.02^ac mm
Mid-Femur Moment of Inertia (I) ([7]; 30 days): 4.5 ± 0.2 mm^4
Mid-Femur Stiffness (S) ([7]; 30 days): 571 ± 13 N/mm
Mid-Femur Toughness (u) ([7]; 30 days): 6.0 ± 0.3^c MJ/m^3
Mid-Femur Ultimate Load (Fu) ([7]; 30 days): 185 ± 6^ac N
Mid-Femur Ultimate Stress (Su) ([7]; 30 days): 229 ± 7 MPa
Mid-Femur Work to Failure (U) ([7]; 30 days): 63 ± 4 mJ
Mid-Femur Young's Modulus (E) ([7]; 30 days): 9.1 ± 0.3 Gpa
Femur Neck Ultimate Load, (Fu) ([7]; 90 days): 146 ± 4^ac N
Mid-Femur Cortical Thickness (t) ([7]; 90 days): 0.71 ± 0.02^ac mm
Mid-Femur Moment of Inertia (I) ([7]; 90 days): 4.5 ± 0.1 mm^4
Mid-Femur Stiffness (S) ([7]; 90 days): 641 ± 14^ac N/mm
Mid-Femur Toughness (u) ([7]; 90 days): 5.7 ± 0.3^a MJ/m^3
Mid-Femur Ultimate Load (Fu) ([7]; 90 days): 209 ± 4^ac N
Mid-Femur Ultimate Stress (Su) ([7]; 90 days): 251 ± 7^ac MPa
Mid-Femur Work to Failure (U) ([7]; 90 days): 62 ± 3^a mJ
Femur Neck Ultimate Load, (Fu) ([7]; 180 days): 147 ± 6^ac N
Mid-Femur Cortical Thickness (t) ([7]; 180 days): 0.89 ± 0.01^ac mm
Mid-Femur Moment of Inertia (I) ([7]; 180 days): 5.4 ± 0.3^ac mm^4
Mid-Femur Stiffness (S) ([7]; 180 days): 814 ± 31^ac N/mm
Mid-Femur Toughness (u) ([7]; 180 days): 5.0 ± 0.3^ac MJ/m^3
Mid-Femur Ultimate Load (Fu) ([7]; 180 days): 241 ± 9^ac N
Mid-Femur Ultimate Stress (Su) ([7]; 180 days): 251 ± 8^ac MPa
Mid-Femur Work to Failure (U) ([7]; 180 days): 61 ± 4^ac mJ
increase in urinary hydroxyproline and pyridinolines ([8]; at three months (Finkelstein et al.)): approximately 200%
increase in resorption assessed using urinary NIX ([8]; at three months (Lindsay et al.)): 25%
increase in lumbar spine bone mineral density ([8]; multiple studies): 10-15%
increase in lumbar spine trabecular bone density by QCT ([8]; one study (Roe et al.)): ≤ 80%
increase in spine bone mineral density by DXA ([8]; one study (Roe et al.)): ≤ 30%

B1: bPTH-(1-84) (protein)
chain: AVSEIQFMHNLGKHLSSMERVEWLRKKLQDVHNFVALGASIAYRDGSSQRPRKKEDNVLVESHQKSLGEADKADVDVLIKAKPQ
notes: Bovine full-length parathyroid hormone from the National Hormone and Pituitary Program
relative affinity less than the amino-terminal analogs ([1]; RCM and SaOS-2 membranes): approximately 10 fold
